Where two headings read alike, the source gives them in different places.
What was measured:
c-Kit = c-Kit (Homo sapiens (Human), UniProt P10721); test: Inhibition of c-Kit kinase activity (HTRF KinEASE-TK); type: biochemical; settings: biochemical, HTRF KinEASE-TK
How it was run: (§1)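 Human kinases were preincubated 1 h at rt with a 22-point 1:2 compound titration, then run 120 min at rt with biotinylated TK peptide and ATP (2× mix: c-Kit 16 μM, PDGFRα 1 μM, PDGFRβ 40 μM, CSF1R 20 μM). Phosphopeptide was read by HTRF TR-FRET (665/620 nm), and IC50s came from 4-parameter fits.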

PDGFRα = PDGFRα (Homo sapiens (Human), UniProt P16234); test: Inhibition of PDGFRα kinase activity (HTRF KinEASE-TK); settings: biochemical, HTRF KinEASE-TK
How it was run: as §1

PDGFRβ = PDGFRβ (Homo sapiens (Human), UniProt P09619); test: Inhibition of PDGFRβ kinase activity (HTRF KinEASE-TK); settings: biochemical, HTRF KinEASE-TK
How it was run: as §1

CSF1R = CSF1R (Homo sapiens (Human), UniProt P07333); test: Inhibition of CSF1R kinase activity (HTRF KinEASE-TK); settings: biochemical, HTRF KinEASE-TK
How it was run: as §1

[1] = tested on: Phospho-KIT (Y703) in M07e cells; test: Phospho-KIT (Y703) cellular assay in M07e cells; type: cell-based; settings: M-07e, M07e cells
Procedure: Phospho-KIT (Y703) Cellular Assay in M07e Cells
The day prior to assay, M07e cells (DSMZ, catalog #ACC 104) were serum starved. Cells were centrifuged and cell pellet resuspended in OptiMEM (Gibco, catalog #31985062) to a density of 1×10^6-2.5×10^6 cells per mL. Cells were then incubated overnight at 5% CO2 and 37° C. in an appropriately sized flask. On the day of the experiment, an 11 point, half log titration of test compound was pre-dispensed into 96-well round bottom polypropylene plates (Corning, catalog #3365). The serum starved M07e cells were centrifuged and resuspended to a cell density of 1×10^6 cells per mL with DPBS (Gibco, catalog #14190-144). Live/Dead Green Fixable viability dye (Invitrogen, catalog #L34970) was added as 1 μL/1 mL of cell suspension. Cells were then incubated in the dark at 4° C. for 30 min. Cells were washed by centrifugation and resuspension with DPBS+0.5% BSA (Gemini Bio Products, catalog #700110/100, 30% BSA solution). Cells were resuspended, separated into two equal volumes and again centrifuged. Cell pellets were resuspended with OptiMEM™ to a cell density of 1×10^6 cells per mL. Cells were then added to the appropriate compound plate at 100,000 cells per well in 100 μL and mixed. Plates were incubated at 5% CO2 and 37° C. for 50 min. Stem Cell Factor, SCF (R&D Systems, #255-SC/CF) was diluted in OptiMEM to 1 μg/mL and added to all wells as 10 μL for a final concentration of 90.9 ng/mL. Plates were incubated at 5% CO2 and 37° C. for 10 min. Incubation was stopped by addition of 110 μL 4% paraformaldehyde solution in PBS (Life Technologies, catalog #J19943.K2). Plates were incubated at rt for at least 15 min. Plates were then centrifuged and supernatant removed by flicking. Cells were washed once by resuspension in 200 μL DPBS+0.5% BSA, centrifuged, and supernatant removed by flicking. Cells were resuspended in 100 μL 1X Permeabilization buffer (Invitrogen, catalog #88882400) and plates incubated at rt for 30 min. Plates were centrifuged, supernatant removed by flicking, and cells resuspended in 50 μL primary antibody, anti-phospho-c-KIT (Tyr703) (Cell Signaling, catalog #3073), diluted to 1 μg/mL with permeabilization buffer. Plates were incubated at rt for 1 h. Plates were centrifuged, supernatant removed, and cells resuspended with 200 μL DPBS+0.5% BSA. Plates were again centrifuged, supernatant removed by flicking, and cells resuspended in 100 μL secondary antibody, goat anti-rabbit AlexaFluor647 (AF647) (Invitrogen, catalog #A21244) diluted to 1 μg/mL with DPBS+0.5% BSA. Plates were incubated at rt for 30 min. followed by centrifugation, supernatant removal, and cell resuspension with 200 μL DPBS+0.5% BSA. Cells were washed again by centrifugation, supernatant removal, and cell resuspension with 200 μL DPBS+0.5% BSA. Samples were then read by flow cytometry. The Forward: Side scatter plot was gated and that population was gated for live cells based on the Live/Dead Green staining. The geometric mean of AF647 of the live cell population was recorded. Percentage maximum activity in each test well was calculated based on DMSO (100% activity) and positive control treated cell wells (0% activity). The potencies (IC50 values) of test compounds were determined using a standard 4-parameter non-linear regression fit.

[2] = read-out: Phospho-KIT (Y703) cellular IC50
[3] = Phospho-KIT (Y703), read-out: M07e Cell IC50

Chain of PDGFRβ (P09619 33-1106): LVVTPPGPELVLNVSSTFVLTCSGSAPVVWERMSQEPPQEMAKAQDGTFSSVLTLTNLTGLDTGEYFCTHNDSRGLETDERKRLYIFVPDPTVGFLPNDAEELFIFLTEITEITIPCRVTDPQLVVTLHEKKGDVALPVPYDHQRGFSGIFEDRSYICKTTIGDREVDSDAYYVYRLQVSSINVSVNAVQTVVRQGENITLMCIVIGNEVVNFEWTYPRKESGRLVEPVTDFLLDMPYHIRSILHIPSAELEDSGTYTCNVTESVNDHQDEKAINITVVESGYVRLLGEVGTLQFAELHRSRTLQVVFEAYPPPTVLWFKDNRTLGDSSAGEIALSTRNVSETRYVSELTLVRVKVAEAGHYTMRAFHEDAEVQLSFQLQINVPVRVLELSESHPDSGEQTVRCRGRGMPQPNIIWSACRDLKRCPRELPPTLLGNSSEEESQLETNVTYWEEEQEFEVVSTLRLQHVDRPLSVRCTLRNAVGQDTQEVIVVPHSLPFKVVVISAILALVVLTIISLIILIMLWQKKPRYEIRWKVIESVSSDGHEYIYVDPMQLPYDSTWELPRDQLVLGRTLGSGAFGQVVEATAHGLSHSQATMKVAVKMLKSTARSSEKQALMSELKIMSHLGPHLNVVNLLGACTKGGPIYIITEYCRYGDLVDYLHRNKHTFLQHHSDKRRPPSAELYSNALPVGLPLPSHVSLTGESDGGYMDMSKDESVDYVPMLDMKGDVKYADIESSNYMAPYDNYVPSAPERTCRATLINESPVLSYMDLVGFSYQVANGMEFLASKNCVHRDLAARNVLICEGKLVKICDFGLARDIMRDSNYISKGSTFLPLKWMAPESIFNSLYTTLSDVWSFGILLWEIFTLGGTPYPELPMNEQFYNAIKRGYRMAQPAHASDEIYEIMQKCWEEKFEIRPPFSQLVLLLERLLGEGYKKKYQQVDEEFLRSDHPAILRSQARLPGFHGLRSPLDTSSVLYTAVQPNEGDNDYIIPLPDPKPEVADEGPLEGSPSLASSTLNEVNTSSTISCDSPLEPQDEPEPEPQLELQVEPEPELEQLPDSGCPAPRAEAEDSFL
Chain of CSF1R (P07333 20-972): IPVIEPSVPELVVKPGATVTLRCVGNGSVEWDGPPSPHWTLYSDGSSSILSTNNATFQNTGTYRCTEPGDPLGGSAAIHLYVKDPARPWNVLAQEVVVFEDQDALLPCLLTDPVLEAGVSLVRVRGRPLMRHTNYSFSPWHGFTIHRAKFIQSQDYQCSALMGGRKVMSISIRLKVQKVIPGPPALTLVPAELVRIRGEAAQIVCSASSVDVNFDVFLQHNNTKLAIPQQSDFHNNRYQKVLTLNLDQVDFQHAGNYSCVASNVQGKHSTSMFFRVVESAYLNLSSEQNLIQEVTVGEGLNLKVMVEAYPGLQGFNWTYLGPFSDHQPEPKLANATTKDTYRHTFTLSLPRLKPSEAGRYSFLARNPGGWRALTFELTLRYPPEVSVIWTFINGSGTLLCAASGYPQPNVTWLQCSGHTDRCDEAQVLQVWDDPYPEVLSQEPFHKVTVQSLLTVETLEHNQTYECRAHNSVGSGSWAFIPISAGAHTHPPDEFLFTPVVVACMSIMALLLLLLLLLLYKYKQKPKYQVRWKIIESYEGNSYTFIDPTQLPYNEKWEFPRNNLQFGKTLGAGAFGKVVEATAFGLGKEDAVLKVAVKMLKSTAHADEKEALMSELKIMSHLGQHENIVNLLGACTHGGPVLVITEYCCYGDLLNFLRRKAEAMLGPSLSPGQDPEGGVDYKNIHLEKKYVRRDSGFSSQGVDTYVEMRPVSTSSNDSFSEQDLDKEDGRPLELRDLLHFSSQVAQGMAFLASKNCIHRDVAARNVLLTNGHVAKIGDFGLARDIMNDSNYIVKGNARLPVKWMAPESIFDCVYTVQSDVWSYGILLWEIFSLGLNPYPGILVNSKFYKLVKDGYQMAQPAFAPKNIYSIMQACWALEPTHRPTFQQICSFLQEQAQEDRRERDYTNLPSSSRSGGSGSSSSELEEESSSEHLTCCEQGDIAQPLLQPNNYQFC
Chain of c-Kit (P10721 26-976): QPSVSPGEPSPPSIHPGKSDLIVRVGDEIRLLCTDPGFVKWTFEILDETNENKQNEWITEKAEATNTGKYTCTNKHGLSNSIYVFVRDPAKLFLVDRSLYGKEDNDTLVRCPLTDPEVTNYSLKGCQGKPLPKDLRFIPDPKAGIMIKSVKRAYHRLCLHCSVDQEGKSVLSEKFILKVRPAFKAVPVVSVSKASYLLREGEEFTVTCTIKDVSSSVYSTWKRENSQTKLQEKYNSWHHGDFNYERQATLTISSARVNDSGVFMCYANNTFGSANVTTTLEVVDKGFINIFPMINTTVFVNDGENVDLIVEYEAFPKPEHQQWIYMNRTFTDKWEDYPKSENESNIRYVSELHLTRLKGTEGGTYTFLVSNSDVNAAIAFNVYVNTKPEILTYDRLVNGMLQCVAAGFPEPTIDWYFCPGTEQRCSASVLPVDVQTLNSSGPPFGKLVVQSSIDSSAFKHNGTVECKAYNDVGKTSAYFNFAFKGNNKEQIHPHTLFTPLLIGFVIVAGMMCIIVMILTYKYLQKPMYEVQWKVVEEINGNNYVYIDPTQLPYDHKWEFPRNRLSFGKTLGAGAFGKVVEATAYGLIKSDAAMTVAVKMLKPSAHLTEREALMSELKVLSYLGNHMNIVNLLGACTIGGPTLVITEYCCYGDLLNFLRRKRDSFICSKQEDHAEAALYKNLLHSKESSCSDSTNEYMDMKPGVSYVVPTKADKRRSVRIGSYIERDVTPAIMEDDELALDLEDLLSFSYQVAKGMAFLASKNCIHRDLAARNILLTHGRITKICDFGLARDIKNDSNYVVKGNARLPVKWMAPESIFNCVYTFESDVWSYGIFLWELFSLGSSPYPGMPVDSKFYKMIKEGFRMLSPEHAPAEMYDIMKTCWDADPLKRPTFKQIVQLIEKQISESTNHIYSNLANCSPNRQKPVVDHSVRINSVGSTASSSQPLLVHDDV
Chain of PDGFRα (P16234 24-1089): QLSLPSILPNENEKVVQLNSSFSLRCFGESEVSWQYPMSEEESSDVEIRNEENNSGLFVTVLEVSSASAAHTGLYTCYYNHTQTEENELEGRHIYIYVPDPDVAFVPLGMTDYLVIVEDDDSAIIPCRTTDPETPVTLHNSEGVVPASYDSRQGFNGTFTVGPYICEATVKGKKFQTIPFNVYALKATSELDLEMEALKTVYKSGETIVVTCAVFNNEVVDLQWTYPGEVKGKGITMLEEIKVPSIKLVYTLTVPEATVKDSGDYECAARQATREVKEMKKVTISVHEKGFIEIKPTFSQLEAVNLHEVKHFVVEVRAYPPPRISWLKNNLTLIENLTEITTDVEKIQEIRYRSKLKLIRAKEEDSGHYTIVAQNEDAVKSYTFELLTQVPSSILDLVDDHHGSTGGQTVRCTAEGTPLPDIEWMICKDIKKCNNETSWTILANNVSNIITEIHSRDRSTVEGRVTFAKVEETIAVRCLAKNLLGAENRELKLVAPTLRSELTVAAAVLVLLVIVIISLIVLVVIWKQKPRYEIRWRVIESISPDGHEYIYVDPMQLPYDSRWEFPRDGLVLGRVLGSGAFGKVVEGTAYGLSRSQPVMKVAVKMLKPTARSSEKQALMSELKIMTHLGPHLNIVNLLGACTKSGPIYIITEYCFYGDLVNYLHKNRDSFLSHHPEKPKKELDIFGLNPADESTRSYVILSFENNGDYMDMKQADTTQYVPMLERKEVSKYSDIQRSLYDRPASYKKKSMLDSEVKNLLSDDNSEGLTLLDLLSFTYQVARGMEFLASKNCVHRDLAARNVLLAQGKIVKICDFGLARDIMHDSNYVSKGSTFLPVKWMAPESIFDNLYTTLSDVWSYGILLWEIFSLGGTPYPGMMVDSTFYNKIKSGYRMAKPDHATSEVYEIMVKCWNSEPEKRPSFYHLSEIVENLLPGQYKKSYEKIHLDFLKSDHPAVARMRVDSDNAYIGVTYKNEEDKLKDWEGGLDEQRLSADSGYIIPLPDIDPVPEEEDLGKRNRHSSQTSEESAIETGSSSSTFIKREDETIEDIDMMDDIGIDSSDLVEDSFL

SMILES: Cc1ncc(C(=O)Nc2cc(C(=O)NCc3ccc(F)cc3F)c(F)cc2C)s1 [Example 263, N-[5-[(2,4-difluorophenyl)methylcarbamoyl]-4-fluoro-2-methylphenyl]-2-methyl-1,3-thiazole-5-carboxamide]
- IC50 (c-Kit): < 100 nM
- IC50 (PDGFRα): > 1000 nM
- IC50 (PDGFRβ): > 1000 nM
- IC50 (CSF1R): > 1000 nM
- IC50 [1, 2]: < 100 nM

SMILES: Cc1ncc(C(=O)Nc2cc(C(=O)Nc3ccn(CC4CC4)n3)c(F)cc2C)s1 [Example 70, N-[5-[[1-(cyclopropylmethyl)pyrazol-3-yl]carbamoyl]-4-fluoro-2-methylphenyl]-2-methyl-1,3-thiazole-5-carboxamide]
- IC50 (c-Kit): < 100 nM
- IC50 (PDGFRα): > 1000 nM
- IC50 (PDGFRβ): > 1000 nM
- IC50 (CSF1R): > 1000 nM
- IC50 [1, 3]: < 100 nM

SMILES: CO[C@@H]1CCN(c2cnc(NC(=O)c3cc(NC(=O)c4cnc(C)s4)c(C)cc3F)cn2)C1 [Example 74, (R)—N-(4-fluoro-5-((5-(3-methoxypyrrolidin-1-yl)pyrazin-2-yl)carbamoyl)-2-methylphenyl)-2-methylthiazole-5-carboxamide]
- IC50 (c-Kit): < 100 nM
- IC50 (PDGFRα): > 1000 nM
- IC50 (PDGFRβ): > 1000 nM
- IC50 (CSF1R): > 1000 nM
- IC50 [1, 3]: < 100 nM

SMILES: Cc1ncc(C(=O)Nc2cc(C(=O)Nc3cnc(N4CCCC4)cn3)c(F)cc2C)s1 [Example 85, N-{5-[N-5-(1-pyrrolidinyl)-2-pyrazinylcarbamoyl]-4-fluoro-2-tolyl}-2-methyl-1,3-thiazole-5-carboxamide]
- IC50 (c-Kit): < 100 nM
- IC50 (PDGFRα): > 1000 nM
- IC50 (PDGFRβ): > 1000 nM
- IC50 (CSF1R): > 1000 nM
- IC50 [1, 3]: < 100 nM

SMILES: Cc1ncc(C(=O)Nc2cc(C(=O)NCc3cc(F)cc(F)c3)c(F)cc2C)s1 [Example 264, N-[5-[(3,5-difluorophenyl)methylcarbamoyl]-4-fluoro-2-methylphenyl]-2-methyl-1,3-thiazole-5-carboxamide]
- IC50 (c-Kit): < 100 nM
- IC50 (PDGFRα): > 1000 nM
- IC50 (PDGFRβ): > 1000 nM
- IC50 (CSF1R): > 1000 nM
- IC50 [1, 2]: < 100 nM

SMILES: Cc1ncc(C(=O)Nc2cc(C(=O)Nc3cnc(N4CC[C@@H](F)C4)cn3)c(F)cc2C)s1 [Example 94, N-[4-fluoro-5-[[5-[(3R)-3-fluoropyrrolidin-1-yl]pyrazin-2-yl]carbamoyl]-2-methylphenyl]-2-methyl-1,3-thiazole-5-carboxamide]
- IC50 (c-Kit): < 100 nM
- IC50 (PDGFRα): > 1000 nM
- IC50 (PDGFRβ): > 1000 nM
- IC50 (CSF1R): > 1000 nM
- IC50 [1, 3]: < 100 nM

SMILES: CCc1ccc(NC(=O)c2cc(NC(=O)c3cnc(N)s3)c(F)cc2F)nc1 [Example 214, 2-Amino-N-[5-[(5-ethylpyridin-2-yl)carbamoyl]-2,4-difluorophenyl]-1,3-thiazole-5-carboxamide]
- IC50 (c-Kit): < 100 nM
- IC50 (PDGFRα): > 1000 nM
- IC50 (PDGFRβ): > 1000 nM
- IC50 (CSF1R): > 1000 nM
- IC50 [1, 3]: < 100 nM

SMILES: Nc1ncc(C(=O)Nc2cc(C(=O)Nc3ccc(C4CC4)nn3)c(F)cc2Cl)s1 [Example 201, 2-Amino-N-[2-chloro-5-[(6-cyclopropylpyridazin-3-yl)carbamoyl]-4-fluorophenyl]-1,3-thiazole-5-carboxamide]
- IC50 (c-Kit): < 100 nM
- IC50 (PDGFRα): > 1000 nM
- IC50 (PDGFRβ): 100 to 1000 nM
- IC50 (CSF1R): 100 to 1000 nM
- IC50 [1, 3]: < 100 nM

SMILES: Cc1ncc(C(=O)Nc2cc(C(=O)Nc3cncc(C4CC4)c3)c(F)cc2C)s1 [Example 53, N-[5-[(5-cyclopropylpyridin-3-yl)carbamoyl]-4-fluoro-2-methylphenyl]-2-methyl-1,3-thiazole-5-carboxamide]
- IC50 (c-Kit): < 100 nM
- IC50 (CSF1R): > 1000 nM
- IC50 [1, 3]: < 100 nM

SMILES: Cc1ncc(C(=O)Nc2cc(C(=O)Nc3cnc(C(F)F)cn3)c(F)cc2C)s1 [Example 56, N-[5-[[5-(difluoromethyl)pyrazin-2-yl]carbamoyl]-4-fluoro-2-methylphenyl]-2-methyl-1,3-thiazole-5-carboxamide]
- IC50 (c-Kit): 100 to 1000 nM
- IC50 (CSF1R): > 1000 nM
- IC50 [1, 3]: 100 to 1000 nM

SMILES: Cc1ncc(C(=O)Nc2cc(C(=O)Nc3cncc(CC(F)(F)F)c3)c(F)cc2C)s1 [Example 81, N-[4-fluoro-2-methyl-5-[[5-(2,2,2-trifluoroethyl)pyridin-3-yl]carbamoyl]phenyl]-2-methyl-1,3-thiazole-5-carboxamide]
- IC50 (c-Kit): < 100 nM
- IC50 (CSF1R): > 1000 nM
- IC50 [1, 3]: < 100 nM

SMILES: Cc1cc(F)c(C(=O)Nc2cncc(C(F)(F)F)c2)cc1NC(=O)c1cnc(N)s1 [Example 249, 2-Amino-N-[4-fluoro-2-methyl-5-[[5-(trifluoromethyl)pyridin-3-yl]carbamoyl]phenyl]-1,3-thiazole-5-carboxamide]
- IC50 (c-Kit): < 100 nM
- IC50 (CSF1R): < 100 nM
- IC50 [1, 3]: < 100 nM

SMILES: Cc1cc(F)c(C(=O)Nc2cccnc2C)cc1NC(=O)c1cnc(N)s1 [Example 250, 2-Amino-N-[4-fluoro-2-methyl-5-[(2-methylpyridin-3-yl)carbamoyl]phenyl]-1,3-thiazole-5-carboxamide]
- IC50 (c-Kit): 100 to 1000 nM
- IC50 (CSF1R): > 1000 nM
- IC50 [1, 3]: 100 to 1000 nM

SMILES: Cc1ncc(C(=O)Nc2cc(C(=O)Nc3cnc(C(C)C)cn3)c(F)cc2C)s1 [Example 28, N-[4-fluoro-2-methyl-5-[(5-propan-2-ylpyrazin-2-yl)carbamoyl]phenyl]-2-methyl-1,3-thiazole-5-carboxamide]
- IC50 (c-Kit): < 100 nM
- IC50 (CSF1R): > 1000 nM
- IC50 [1, 3]: < 100 nM

SMILES: Cc1ncc(C(=O)Nc2cc(C(=O)Nc3ccnc(OC(F)F)c3)c(F)cc2C)s1 [Example 21, N-[5-[[2-(Difluoromethoxy)pyridin-4-yl]carbamoyl]-4-fluoro-2-methylphenyl]-2-methyl-1,3-thiazole-5-carboxamide]
- IC50 (c-Kit): < 100 nM
- IC50 (CSF1R): > 1000 nM
- IC50 [1, 3]: < 100 nM

SMILES: Cc1ncc(C(=O)Nc2cc(C(=O)Nc3cncc(CC4CC4)n3)c(F)cc2C)s1 [Example 34, N-[5-[[6-(cyclopropylmethyl)pyrazin-2-yl]carbamoyl]-4-fluoro-2-methylphenyl]-2-methyl-1,3-thiazole-5-carboxamide]
- IC50 (c-Kit): < 100 nM
- IC50 (CSF1R): > 1000 nM
- IC50 [1, 3]: < 100 nM

SMILES: Cc1ncc(C(=O)Nc2cc(C(=O)N[C@H]3C[C@@H]3c3ccccc3)c(F)cc2C)s1 [Example 30, N-[4-Fluoro-2-methyl-5-[[(1S,2R)-2-phenylcyclopropyl]carbamoyl]phenyl]-2-methyl-1,3-thiazole-5-carboxamide]
- IC50 (c-Kit): 100 to 1000 nM
- IC50 (CSF1R): > 1000 nM
- IC50 [1, 3]: < 100 nM

SMILES: Nc1ncc(C(=O)Nc2cc(C(=O)Nc3ccc(CC(F)(F)F)cn3)c(F)cc2F)s1 [Example 221, 2-Amino-N-[2,4-difluoro-5-[[5-(2,2,2-trifluoroethyl)pyridin-2-yl]carbamoyl]phenyl]-1,3-thiazole-5-carboxamide]
- IC50 (c-Kit): < 100 nM
- IC50 (CSF1R): 100 to 1000 nM
- IC50 [1, 3]: < 100 nM

SMILES: CCc1cnc(NC(=O)c2cc(NC(=O)c3cnc(C)s3)c(C)cc2F)cn1 [Example 27, N-[5-[(5-ethylpyrazin-2-yl)carbamoyl]-4-fluoro-2-methylphenyl]-2-methyl-1,3-thiazole-5-carboxamide]
- IC50 (c-Kit): < 100 nM
- IC50 (CSF1R): > 1000 nM
- IC50 [1, 3]: < 100 nM
